Values of other authors in patent publication US6406713B1 (priority 1987, dated 2002).

Experiments:
HTLV-III/LAV virus = details: HTLV-III/LAV infected cell cultures
histoplasmosis = details: mouse, in vivo

Compound: C[C@@H]1[C@H](O)[C@@H](C)/C=C/C=C/C=C/C=C/C=C/C=C/C=C/[C@H](O[C@@H]2O[C@H](C)[C@@H](O)[C@H](N)[C@@H]2O)C[C@@H]2O[C@](O)(C[C@@H](O)C[C@@H](O)[C@H](O)CC[C@@H](O)C[C@@H](O)CC(=O)O[C@H]1C)C[C@H](O)[C@H]2C(=O)O [amphotericin B]
- protection of target cells against cytopathic effects of the virus (HTLV-III/LAV virus): protected target cells against the cytopathic effects of the virus

Compound: liposomal-amphotericin B
- serum and tissue distributions (histoplasmosis): lower serum levels and higher liver and spleen concentrations
- toxicity versus free amphotericin B preparations (histoplasmosis): less toxic

Compound: COC(=O)[C@H]1[C@@H]2C[C@@H](O[C@@H]3O[C@H](C)[C@@H](O)[C@H](N)[C@@H]3O)/C=C/C=C/C=C/C=C/C=C/C=C/C=C/[C@H](C)[C@@H](O)[C@@H](C)[C@H](C)OC(=O)C[C@H](O)C[C@H](O)CC[C@@H](O)[C@H](O)C[C@H](O)C[C@](O)(C[C@@H]1O)O2 [amphotericin B methyl ester]
- protection of target cells against cytopathic effects of the virus (HTLV-III/LAV virus): protected target cells against the cytopathic effects of the virus
